Each structure is given as a SMILES string.

The target in assay [1] is Replicase polyprotein 1ab (Severe acute respiratory syndrome coronavirus 2, UniProt P0DTD1). The experiment in a line: Inhibition of 6-his taggedSARS-Cov-2 3-CL protease using Dabcyl-KNSTLQSGLRKE-Edans as substrate preincubated for 60 mins followed by substrate addition by fluorescence based analysis.
The next assay relates to Human coronavirus OC43. Put plainly: Antiviral activity against HCoV OC43 infected in human Huh-7 cells assessed as inhibition of viral replication of CPE assay. It counts as functional, organism-based. Conditions: Betacoronavirus 1, Huh-7.
The test system of another assay is Huh-7. Put plainly: Cytotoxicity against human Huh-7 cells assessed as reduction in cell viability measured after 7 days by celltiter-glo assay. It counts as functional. The note with it: Huh-7, 168 h, time 7 day. A general note: ATP-based viability assays read luminescence as a measure of living cells.
Assay [2] deals with Replicase polyprotein 1ab (Severe acute respiratory syndrome coronavirus 2) (UniProt P0DTD1). The experiment in a line: Binding affinity to 6-his taggedSARS-Cov-2 3-CL protease assessed as Kinact/Ki using Dabcyl-KNSTLQSGLRKE-Edans as substrate measured for 120 mins.

As for `CC(=O)/C(C)=C\[C@H](C[C@@H]1CCNC1=O)NC(=O)[C@@H]1[C@@H]2[C@H](CN1C(=O)[C@@H](NC(=O)C(F)(F)F)C(C)(C)C)C2(C)C`, half-maximal inhibition in assay [1] (IC50) was put at 50.7 nM. That is a double-digit nanomolar value.
For `CC(C)(C)[C@H](NC(=O)C(F)(F)F)C(=O)N1C[C@H]2[C@@H]([C@H]1C(=O)N[C@H](/C=C/C(N)=O)C[C@@H]1CCNC1=O)C2(C)C`, the IC50 (commonly the concentration that inhibits the measured activity by half) in assay [1] is 23.4 nM. For the same molecule, the EC50 – broadly, the concentration at which the effect is half-maximal – in the assay on Human coronavirus OC43 was found to be 9070 nM. In addition, the CC50 (in general, the concentration that lowers cell viability or growth by half) in the assay with Huh-7 is over 10000 nM. Moreover, the K in assay [2] worked out at 9750 M⁻¹ s⁻¹.
In turn, `CN(C)CCOc1c(Cl)cc([C@H](NC(=O)C(F)(F)F)C(=O)N2C[C@H]3[C@@H]([C@H]2C(=O)N[C@H](C#N)C[C@@H]2CCNC2=O)C3(C)C)cc1Cl` came in with a half-maximal inhibitory concentration (IC50) in assay [1] of 631 nM.
The molecule `CN(C)CCOc1c(Cl)cc([C@H](NC(=O)C(F)F)C(=O)N2C[C@H]3[C@@H]([C@H]2C(=O)N[C@H](C#N)C[C@@H]2CCNC2=O)C3(C)C)cc1Cl` yielded an IC50 in assay [1] of 376 nM.
Regarding `CC(C)(C)[C@H](NC(=O)C(F)(F)F)C(=O)N1C[C@H]2[C@@H]([C@H]1C(=O)N[C@H](C#N)C[C@@H]1CCNC1=O)C2(C)C` [NIRMATRELVIR], the 50% effective concentration (EC50) in the assay on Human coronavirus OC43 stood at 72 nM. In addition, the cytotoxic concentration (CC50) in the assay with Huh-7 is over 10000 nM.
In assay [1], `COC(=O)/C=C/[C@H](C[C@@H]1CCNC1=O)NC(=O)[C@@H]1[C@@H]2[C@H](CN1C(=O)[C@@H](NC(=O)C(F)(F)F)C(C)(C)C)C2(C)C` registered a half-maximal inhibitory concentration (IC50) of 28.9 nM. The 50% effective concentration (EC50) with Human coronavirus OC43 worked out at 97 nM. Also, the cytotoxic concentration (CC50) with Huh-7 was over 10000 nM. Moreover, the K in assay [2] is 17200 M⁻¹ s⁻¹.
On to `CN(C)CCOc1c(Cl)cc(C(NC(=O)C(C)(C)F)C(=O)N2C[C@H]3[C@@H]([C@H]2C(=O)N[C@H](C#N)C[C@@H]2CCNC2=O)C3(C)C)cc1Cl` (stereo not given in full), for which, in assay [1], the concentration for half-maximal inhibition (IC50) stood at 249 nM.
For the molecule `CC(C)C(=O)N[C@H](C(=O)N1C[C@H]2[C@@H]([C@H]1C(=O)N[C@H](C#N)C[C@@H]1CCNC1=O)C2(C)C)c1cc(Cl)c(OCCN(C)C)c(Cl)c1`, the midpoint of inhibition in assay [1], the IC50, lay at 206 nM.

The values are drawn from ChEMBL document CHEMBL6092138, “Discovery of the potent covalent inhibitor with an acrylate warhead for SARS-CoV-2 3CL protease” (Bioorg Med Chem Lett, 2024).
